Laboratory results published in patent US20250327133A1, “USE OF SRE-PTPRZ1 INHIBITOR IN PREPARATION OF DRUG FOR TREATING SQUAMOUS CELL CARCINOMA” (WEST CHINA HOSPITAL, SICHUAN UNIVERSITY, priority 2022, published 2025).

Experiments:
[1] = system: human Lung-LUSC cell lines; assay: CCK8 cell proliferation, MY33-3, Lung-LUSC cell lines; format: cell-based; settings: 7 human Lung LUSC cell lines; 72 hours
Experimental: (§1) The CCK8 method was used to detect the effect of PTPRZ1 inhibitor MY33-3 on cell proliferation. 7 strains of human Lung-LUSC cells, one strain of human lung adenocarcinoma cell, one strain of human normal lung epithelial cell BEAS-2B, and one strain of PTPRZ1 high expressing cell line U251 (high expression of PTPRZ1 gene in glioma cells) were used in this experiment for detection. Each cell line was inoculated into a 96-well plate at a density of 6000 cells/well, cultured for 24 hours, and then 100 μL of MY33-3 working solution was added to the test wells at final concentrations of 0 μM, 1 μM, 2 μM, 4 μM, 8 μM, 16 μM, 32 μM, and 64 μM, while 100 μL of medium was added to the blank control well. After 72 hours of drug treatment, 20 μL of CCK8 was added in proportion and incubated for 1 hour. The absorbance value was measured at 450 nm, and the IC50 values of MY33-3 against different cells were plotted.

[2] = system: human Lung LUAD cell line; assay: CCK8 cell proliferation, MY33-3, lung adenocarcinoma cell line; format: cell-based; settings: one human Lung LUAD cell line; 72 hours
Experimental: as §1

[3] = system: human normal lung epithelial cell line BEAS-2B; assay: CCK8 cell proliferation, MY33-3, BEAS-2B; format: cell-based; settings: 72 hours
Experimental: as §1

[4] = system: PTPRZ1 glioma cell line U251; assay: CCK8 cell proliferation, MY33-3, U251; format: cell-based; settings: Homo sapiens, U-251, 72 hours
Experimental: as §1

[5] = system: human Lung-LUSC (H520) cells; assay: Subcutaneous tumor formation in nude mice (H520); format: in vivo, BALB/c-nu mice; settings: for tumor size compared with the model group / tumor volume compared with the model group: after 21 days of administration
Experimental: At the animal level, the method of subcutaneous tumor formation in nude mice was used to verify the therapeutic effect of the inhibitor MY33-3 on the tumor formation of human Lung-LUSC (H520) cells. Firstly, 30 of 4W BALB/c-nu mice were purchased from GemPharmatech and acclimated for 3 days. Then, 150 μL of pre-prepared H520 cells was injected subcutaneously into the right forelimb of nude mice at 8×10^6 cells/mouse. After 7 days, the tumor growth of each nude mouse was observed, and the mice were grouped and received drugs when the tumor grew to 100 mm^3. Mice were divided into the blank group, the model group, the low-dose group, and the high-dose group, with 7 mice in each group. Meanwhile, the inhibitor MY33-3 was administered at doses of 20 mg/kg (low-dose group) and 100 mg/kg (high-dose group) once every 2 days, and the changes in tumor growth were recorded using a vernier caliper. Then, after 21 days of administration, samples were collected, and the therapeutic effect of the inhibitor MY33-3 on human Lung-LUSC cells was evaluated using indicators such as tumor volume, tumor weight, and nude mouse weight.

H520 cells = assay: CCK8 cell survival, MY-10, H520; format: cell-based, human; settings: 72 hours
Experimental: (§2) The CCK8 method was used to detect the effect of the PTPRZ1 inhibitor MY-10 on cell proliferation. 3 human Lung-LUSC cells and one PTPRZ1 high expression cell line U251 (high expression of PTPRZ1 gene in glioma cells) were used in this experiment for detection. Each cell line was inoculated into a 96-well plate at a density of 5000 cells/well, cultured for 24 hours, and then 100 μL of MY-10 working solution was added at final concentrations of 0 μM, 1 μM, 2 μM, […], 6 μM, and […] to the test wells, while 100 μL of medium was added to the blank control well. After 72 hours of drug treatment, 20 μL of CCK8 was added in proportion, followed by incubating for 1 h. The absorbance value was measured at 450 nm, and the survival rates of MY-10 against different Lung-LUSC cells were plotted.

H1703 = assay: CCK8 cell survival, MY-10, H1703; format: cell-based, human; settings: 0-8 μM, 72 hours
Experimental: as §2

LK-2 = assay: CCK8 cell survival, MY-10, LK-2; format: cell-based, human; settings: 0-8 μM, 72 hours
Experimental: as §2

[6] = system: PTPRZ1 glioma cell line (U251); assay: CCK8 cell survival, MY-10, U251; format: cell-based; settings: 0-8 μM, 72 hours
Experimental: as §2

human Lung-LUSC cells = assay: CCK8 cell growth inhibition by NAZ2329, Lung-LUSC cells; format: cell-based; settings: 5-70 μM, 72 hours
Experimental: (§3) The CCK8 method was used to detect the inhibition rate of PTPRZ1 inhibitor NAZ2329 on cell growth. 5 strains of human Lung-LUSC cells, one strain of human normal lung epithelial cell BEAS-2B, and one strain of highly expressed PTPRZ1 cell line U251 (High expression of PTPRZ1 gene in glioma cells) were used in this experiment for detection. Each cell line was inoculated into a 96-well plate at a density of 8000 cells/well, and cultured for 18 h. Then, 100 μL of NAZ2329 solution was added to the test wells at final concentrations of 5 μM, 10 μM, 20 μM, 30 μM, 40 μM, 50 μM, 60 μM, and 70 μM, while 100 μL of medium was added to the blank control well. After 72 hours of drug treatment, 20 μL of CCK8 was added in proportion and incubated for 2 h. The absorbance value was measured at 450 nm and the inhibition rate curve was plotted.

[7] = system: human normal lung epithelial cell BEAS-2B; assay: CCK8 cell growth inhibition by NAZ2329, BEAS-2B; format: cell-based; settings: 5-70 μM, 72 hours
Experimental: as §3

glioma cell line U251 = assay: CCK8 cell growth inhibition by NAZ2329, U251; format: cell-based; settings: 5-70 μM, 72 hours
Experimental: as §3

FC(F)(F)Sc1ccc(CNCc2ccc(SC(F)(F)F)cc2)cc1 [MY33-3]
IC50 [1]: < 16 µM
IC50 [2]: 25 µM
IC50 [3]: 28 µM
IC50 [4]: 33 µM
inhibitory effect on tumorigenicity of H520 cells ([5]; dose of 20 mg/kg): good inhibitory effect
weight of nude mice versus model group ([5]; high-dose group 100 mg/kg): no significant difference
tumor size compared with the model group ([5]; high-dose group 100 mg/kg once every 2 days): significantly decreased
tumor volume compared with the model group ([5]; high-dose group 100 mg/kg): more significantly decreased
weight of nude mice versus model group ([5]; low-dose group 20 mg/kg): no significant difference
tumor size compared with the model group ([5]; low-dose group 20 mg/kg once every 2 days): significantly decreased
tumor volume compared with the model group ([5]; low-dose group 20 mg/kg): more significantly decreased

FC(F)(F)Sc1ccc(CCCOc2ccc(SC(F)(F)F)cc2)cc1 [MY-10]
inhibitory effect with increasing concentrations (H520 cells; H520, 0-8 μM): significant inhibitory effects
IC50 (H520 cells; Homo sapiens, NCI-H520, H520 cells, read-out: IC50 (survival rate)): ~4 µM
inhibitory effect with increasing concentrations (H1703): significant inhibitory effects
inhibitory effect with increasing concentrations (LK-2): significant inhibitory effects
inhibitory effect with increasing concentrations [6]: significant inhibitory effects

CCOc1ccc(C(F)(F)F)cc1CSc1ccsc1C(=O)NS(=O)(=O)c1ccccc1 [NAZ2329]
growth inhibition rate on cell growth (human Lung-LUSC cells; 4 strains of Lung-LUSC cells, compared with BEAS-2B and U251): significantly higher than that of human normal lung epithelial cells BEAS-2B and glioma cell line U251
cell growth with increasing treatment concentration (human Lung-LUSC cells; Lung-LUSC cells): inhibited
cell growth with increasing treatment concentration [7]: inhibited
cell growth with increasing treatment concentration (glioma cell line U251): inhibited
